Results as given in patent publication US5461057A, “Hydro-ethano-indeno-pyridines” (priority 1994, dated 1995).
Counter-ions that a name gives are not always drawn. Like-named read-outs stand apart in the source and are kept apart here.

What was measured:
[1] = test system: histamine-induced dyspnea; experiment: Bronchodilator (in vivo) Guinea Pig Dyspnea; conditions: oral, one hour before histamine challenge
Method: Unanesthetized guinea pigs (250-350 g), fasted overnight were placed in individual closed aerosol chambers which were connected to a Monoghan Ultrasonic nebulizer. The nebulizer can deliver an ultrasonic fog of uniform particles in a range of 1-8 microns. A 0.1% solution of histamine is aerosolized into the chambers causing the guinea pigs to develop dyspnea. The test drug was given orally one hour before the histamine challenge and the onset of dyspnea was recorded. Saline control animals developed dyspnea within 90-120 seconds of aerosol exposure. […] The data was expressed as the number tested over the number survived. The model was sensitive to bronchodilator and H1 antihistamine activity. Further information relating this test can be obtained from the following two publications which are hereby incorporated by reference: Dungan, K. W. and Lish, P. M. J Allergy 32:139-151 (1961). and Lish, P. M., Robbins, S. I. and Petres E. L. J. Pharmacol. Exp. Therap. 153 L 1538 (1966 ).

[2] = test system: pulmonary resistance; experiment: Pulmonary Resistance in the Anesthetized Rat; type: in vivo; conditions: 0.5 mpk, i.v., mean of 5 animals, % decrease in pre-drug baseline resistance; for inhibition in vivo at 0.5 mg/kg: Rattus norvegicus, iv, read-out: Pulmonary Resistance in Rats, % Inhibition
Method: Rats (400-500 g) anesthetized with dialurethane were surgically prepared with tracheal and esophageal catheters. These catheters were connected to pressure transducers for recording of air flow, tracheal and esophageal pressures. These pressures formed the basis for measurement of pulmonary resistance. Inhibition of pulmonary resistance is a reflection of bronchodilation.
All compounds were tested i. v. in 5 separate animals. All data are expressed in % decrease in the pre-drug baseline resistance and each number given is the mean of the 5 animals tested.
The model is sensitive to bronchodilator activity.
Further information relating this test can be obtained from the following publications which are hereby incorporated by reference: Comroe et al, J. Appl. Physio. 4:439-44 (1959); Dungan et al J. Pharmacol. Exp. Therap. 164:290-301(1968); and Mead, J. et al. J. Appl. Physio. 5:779-796 (1953).

[3] = test system: LOX human melanoma cell adhesion to human fibronectin; experiment: LOX melanoma cell adhesion to fibronectin; type: cell-based; conditions: Homo sapiens, LOX; for inhibition at 10 µM: read-out: % Inhibition at 10 μM; for inhibition at 50 µM: read-out: % Inhibition at 50 μM; for IC50: Table 4, 1 hour adhesion, read-out: LOX FN IC50
Method: (§1) Adhesion assays were run essentially as described previously (Pai et al., J. Biomed. Res. 2: 53, 1992). 96-well plates were coated with human fibronectin (140 ng/well), human vitronectin (75 ng/well), human collagen I (100 ng/well), human collagen IV (100 ng/well), human fibrinogen (1 μg/well), murine laminin (600 ng/well), or polylysine, and incubated overnight in a humidified 37° C. incubator. Excess fibronectin or other substrate was then removed and 0.2 ml of 2 mg/ml bovine serum albumin (BSA)in Dulbecco's phosphate-buffered saline (DPBS) was added to each well, incubated for 2 hours at 37° C., and removed. LOX human melanoma cells, M27 murine lung carcinoma cells or B16F10 mouse melanoma cells were detached from tissue culture flasks with RPMI medium containing 0.2M urea and 10 mM EDTA, and 0.18 ml of cells were added to each well to a final cell concentration of 1×10^5 cells/well. For inhibition studies 20 μl of 10× compound was added to the wells prior to cell addition. Cells were allowed to adhere for 1 hour at 37° C. The wells were then gently washed twice with 0.2 ml DPBS. The fluorescent dye calcein AM (Molecular Probes, Eugene Oreg.) in DPBS (0.1 ml of 1 μM) was added to each well, and the plates were incubated for 1 hour at room temperature. Adherent cells were quantitated by reading the fluorescence on a Cytofluor 2300 fluorescent plate reader (Millipore) at 485 nm excitation and 530 nm emission.
LOX FN-IC50 value for inhibition of adhesion of LOX human melanoma cells to fibronectin coated on a plastic surface.

[4] = Calcein cytotoxicity assay; type: cell-based; conditions: human, lox melanoma cells; 2 hours, calcein AM assay; read-out: 2 Hr Tox LD50
Method: LOX human melanoma cells were detached from tissue culture flasks with RPMI medium containing 0.2M urea and 10 mM EDTA, and 0.18 ml of cells were added to each well to a final cell concentration of 5×10^4 cells/well. 20 μl of 10× compound was added to the wells prior to cell addition. Cells were incubated with the compound at 37° C. for 1 hour or 5 hour as indicated. Calcein AM in DPBS (0.02 ml of 5 μM) was added to each well, and the plates were incubated for an additional 1 hour at room temperature. Viable cells were quantitated by reading the fluorescence on a Cytofluor 2300 fluorescent plate reader at 485 nm excitation and 530 nm emission.

[5] = test system: LOX human melanoma cell adhesion to polylysine; experiment: LOX melanoma cell adhesion to polylysine; type: cell-based; conditions: read-out: Poly Lys IC50
Method: as §1

[6] = Cavia porcellus, 1 h, 50 mg/kg, read-out: DYSP survivors (converted)
[7] = Cavia porcellus, 1 h, 100 mg/kg, read-out: DYSP survivors (converted)

CN1C2CCC1C1c3ccccc3C(O)(c3cccc(F)c3)C1C2 (centres unmarked) [RR]
responders at 50 mg/kg [1, 6]: 0%
responders at 100 mg/kg [1, 7]: 66.7%
inhibition in vivo at 0.5 mg/kg [2]: 28%
inhibition at 10 µM [3]: 13.8%
inhibition at 50 µM [3]: 17.6%

CN1C2CCC1C1c3cc(Cl)ccc3C(O)(c3ccccc3)C1C2 (centres unmarked) [VV]
responders at 100 mg/kg [1, 7]: 100%
inhibition at 10 µM [3]: 0.9%
inhibition at 50 µM [3]: 15.9%

CN1C2CCC1C1c3ccccc3C(O)(c3ccccc3C(F)(F)F)C1C2 (centres unmarked) [TT]
responders at 50 mg/kg [1, 6]: 0%
inhibition in vivo at 0.5 mg/kg [2]: 7%
inhibition at 10 µM [3]: 16.7%
inhibition at 50 µM [3]: 16.1%

CN1C2CCC1C1C(=C(c3ccccc3)c3ccc(F)cc31)C2 (centres unmarked) [M]
DYSP survivors ([1]; 100 mg/kg): 0/3
inhibition at 10 µM [3]: 18.4%
inhibition at 50 µM [3]: 99.6%
IC50 [3]: 12.5 µM
CC50 at 2 h [4]: 39.8 µM
IC50 [5]: 72.7 µM

CN1C2CCC1C1C(=C(c3ccccc3)c3cc(F)ccc31)C2 (centres unmarked) [I]
DYSP survivors ([1]; 100 mg/kg): 1/3
inhibition at 10 µM [3]: 35.6%
inhibition at 50 µM [3]: 100%
IC50 [3]: 7.6 µM
CC50 at 2 h [4]: 55.9 µM
IC50 [5]: 22.8 µM

CN1C2CCC1C1C(=C(c3cccc(F)c3)c3cc(F)ccc31)C2 (centres unmarked) [Compound G]
DYSP survivors ([1]; 100 mg/kg): 1/3
inhibition at 10 µM [3]: 38.1%
inhibition at 50 µM [3]: 101%
IC50 [3]: 5.3 µM
CC50 at 2 h [4]: 29.5 µM
IC50 [5]: 63 µM

Cc1ccc(C2(O)c3ccccc3C3C4CCC(CC32)N4C)cc1 (centres unmarked) [OO]
responders at 100 mg/kg [1, 7]: 33.3%
inhibition in vivo at 0.5 mg/kg [2]: -18%
inhibition at 10 µM [3]: 6.6%
inhibition at 50 µM [3]: 23.7%

COc1ccc(C2c3ccccc3C3C2CC2CCC3N2C)cc1 (centres unmarked) [GG]
DYSP survivors ([1]; 100 mg/kg): 2/3
inhibition at 10 µM [3]: 7.1%
inhibition at 50 µM [3]: 39.1%

CSc1ccc(C2(O)c3ccccc3C3C4CCC(CC32)N4C)cc1 (centres unmarked) [KK]
responders at 50 mg/kg [1, 6]: 0%
inhibition at 10 µM [3]: 7.2%
inhibition at 50 µM [3]: 32.8%

CN1C2CCC1C1c3ccccc3C(O)(c3cccc(Cl)c3)C1C2 (centres unmarked) [QQ]
responders at 50 mg/kg [1, 6]: 33.3%
inhibition in vivo at 0.5 mg/kg [2]: -30%
inhibition at 10 µM [3]: 9.2%
inhibition at 50 µM [3]: 21.1%

CN1C2CCC1C1C(=C(c3cccc(Cl)c3)c3ccccc31)C2 (centres unmarked) [D]
DYSP survivors ([1]; 100 mg/kg): 1/3
inhibition at 10 µM [3]: 56.5%
inhibition at 50 µM [3]: 101%
IC50 [3]: 7.4 µM
CC50 at 2 h [4]: 34.6 µM
IC50 [5]: 71.9 µM

COc1ccc(C2(O)c3cc(F)ccc3C3C4CCC(CC32)N4C)cc1 (centres unmarked) [CCC]
responders at 100 mg/kg [1, 7]: 66.7%

CN1C2CCC1C1c3ccc(Cl)cc3C(O)(c3ccc(F)cc3)C1C2 (centres unmarked) [II]
responders at 100 mg/kg [1, 7]: 100%
inhibition at 10 µM [3]: 5.4%
inhibition at 50 µM [3]: 34.8%

CN1C2CCC1C1c3ccccc3C(O)(c3ccc4c(c3)OCO4)C1C2 (centres unmarked) [WW]
inhibition in vivo at 0.5 mg/kg [2]: 39%
inhibition at 10 µM [3]: 1.2%
inhibition at 50 µM [3]: 11.9%

CN1C2CCC1C1c3cc(Cl)ccc3C(O)(c3ccc(F)cc3)C1C2 (centres unmarked) [LL]
inhibition at 10 µM [3]: -12.2%
inhibition at 50 µM [3]: 26.6%

CN1C2CCC1C1C(=C(c3ccc(Cl)c(C(F)(F)F)c3)c3ccccc31)C2 (centres unmarked) [Compound N]
DYSP survivors ([1]; 100 mg/kg): 0/3
Pulmonary Resistance in Rats, % Inhibition [2]: 33%
inhibition at 10 µM [3]: 7%
inhibition at 50 µM [3]: 101%
IC50 [3]: 19.4 µM
CC50 at 2 h [4]: 23.8 µM
IC50 [5]: 25.3 µM

CN1C2CCC1C1C(=C(c3ccc(F)cc3)c3cc(Cl)ccc31)C2 (centres unmarked) [Compound E]
DYSP survivors ([1]; 100 mg/kg): 0/3
inhibition at 10 µM [3]: 49.5%
inhibition at 50 µM [3]: 100%
IC50 [3]: 6.2 µM
CC50 at 2 h [4]: 21.8 µM
IC50 [5]: 46.2 µM

COc1ccc(C2(O)c3c(Cl)cccc3C3C4CCC(CC32)N4C)cc1 (centres unmarked) [BBB]
responders at 100 mg/kg [1, 7]: 33.3%
inhibition at 10 µM [3]: -11.8%
inhibition at 50 µM [3]: 5.6%

CN1C2CCC1C1c3ccc(Cl)cc3C(O)(c3ccccc3)C1C2 (centres unmarked) [YY]
responders at 50 mg/kg [1, 6]: 100%
responders at 100 mg/kg [1, 7]: 66.7%
inhibition at 10 µM [3]: -14.6%
inhibition at 50 µM [3]: 7.4%

CN1C2CCC1C1=C(C2)C(c2cccs2)c2ccccc21 (centres unmarked) [GGG]
inhibition at 10 µM [3]: -27.6%
inhibition at 50 µM [3]: 64.4%

CN1C2CCC1C1C(=C(c3ccc(F)cc3)c3cc(F)ccc31)C2 (centres unmarked) [Compound H]
DYSP survivors ([1]; 100 mg/kg): 1/3
Pulmonary Resistance in Rats, % Inhibition [2]: 20%
inhibition at 10 µM [3]: 37.5%
inhibition at 50 µM [3]: 101%
IC50 [3]: 6.5 µM
CC50 at 2 h [4]: 36.9 µM
IC50 [5]: 23.7 µM

CN1C2CCC1C1=C(C2)C(c2ccccc2)c2cc(O)ccc21 (centres unmarked) [BB]
inhibition at 50 µM [3]: 6.5%
inhibition at 10 µM ([3]; 1 h): -38.2%

CN1C2CCC1C1C(=C(c3cccc(F)c3)c3ccccc31)C2 (centres unmarked) [O]
DYSP survivors ([1]; 100 mg/kg): 0/3
inhibition at 10 µM [3]: 5.2%
inhibition at 50 µM [3]: 97.1%
IC50 [3]: 11.2 µM
CC50 at 2 h [4]: 72 µM
IC50 [5]: 130 µM

COc1ccc(C2(O)c3ccc(Cl)cc3C3C4CCC(CC32)N4C)cc1 (centres unmarked) [ZZ]
responders at 100 mg/kg [1, 7]: 33.3%
inhibition at 10 µM [3]: -9.7%
inhibition at 50 µM [3]: 7%

CN1C2CCC1C1C(=C(c3cccc(C(F)(F)F)c3)c3ccccc31)C2 (stereo not drawn) [L, 1 (SR):3(RS)-1,3-Ethano-2-methyl-5-(m-trifluoromethylphenyl)-1,3,4,9b-tetrahydro-H-indeno[1,2-c] pyridine. HCl 0.75H2 O.]
responders at 100 mg/kg [1, 7]: 100%
inhibition in vivo at 0.5 mg/kg [2]: 14%
inhibition at 10 µM [3]: 23.7%
inhibition at 50 µM [3]: 100%
IC50 [3]: 20 µM
CC50 at 2 h [4]: 29.7 µM
IC50 [5]: 80.4 µM

CN1C2CCC1C1C(=C(c3cccc(F)c3)c3ccc(F)cc31)C2 (centres unmarked) [P]
DYSP survivors ([1]; 50 mg/kg): 0/3
Pulmonary Resistance in Rats, % Inhibition [2]: 12%
inhibition at 10 µM [3]: -2.4%
inhibition at 50 µM [3]: 99.8%
IC50 [3]: 11.7 µM
CC50 at 2 h [4]: 64.3 µM
IC50 [5]: 297 µM

CN1C2CCC1C1c3ccccc3C(O)(c3cccc(C(F)(F)F)c3)C1C2 (centres unmarked) [NN]
responders at 50 mg/kg [1, 6]: 0%
inhibition at 10 µM [3]: 9.4%
inhibition at 50 µM [3]: 24.7%

COc1ccc(C2(O)c3cc(Cl)ccc3C3C4CCC(CC32)N4C)cc1 (centres unmarked) [XX, 7-Chloro-5-(p-methoxyphenyl)-2-methyl-1,3-ethano-1,2,3,4,4a,9b-hexahydro-5H-indeno[1,2-c]pyridin-5-ol]
responders at 10 mg/kg ([1]; Cavia porcellus, 1 h, 10 mg/kg, read-out: DYSP survivors (converted)): 66.7%
responders at 20 mg/kg ([1]; Cavia porcellus, 1 h, 20 mg/kg, read-out: DYSP survivors (converted)): 66.7%
responders at 50 mg/kg [1, 6]: 100%
responders at 100 mg/kg [1, 7]: 100%
inhibition at 10 µM [3]: -23.1%
inhibition at 50 µM [3]: 8.1%

CN1C2CCC1C1c3ccccc3C(O)(c3ccc(Cl)cc3)C1C2 (centres unmarked) [HH]
responders at 100 mg/kg [1, 7]: 33.3%
inhibition at 10 µM [3]: 2.5%
inhibition at 50 µM [3]: 36.9%
